Experimental data: ChEMBL document CHEMBL5036344, “Design and application of hybrid cyclic-linear peptide-doxorubicin conjugates as a strategy to overcome doxorubicin resistance and toxicity” (Eur J Med Chem, 2021)
Active and inactive are the calls of the source. The rule behind the calls is not given here.

Legend:
H9c2 [1] = test: Cytotoxicity against rat H9c2 cells assessed as reduction in cell viability at 5 to 25 uM incubated upto 96 hrs by MTT assay; format: cell-based; conditions: h9c2, 96 h, dose 5-25 µM
CCRF-CEM [2] = test: Cytotoxicity against human CCRF-CEM cells assessed as reduction in cell viability at 25 uM incubated for 72 hrs by MTT assay; format: functional
SK-OV-3 [3] = test: Cytotoxicity against human SK-OV-3 cells assessed as reduction in cell viability at 5 uM incubated for 72 hrs by MTT assay; format: functional
MDA-MB-231 [4] = test: Cytotoxicity against doxorubicin resistant human MDA-MB-231 cells assessed as reduction in cell viability incubated for 72 hrs by MTT assay; format: functional; conditions: read-out: LC50 (the source's name)
MDA-MB-231 [5] = test: Cytotoxicity against wild type human MDA-MB-231 cells assessed as reduction in cell viability incubated for 72 hrs by MTT assay; format: functional; conditions: read-out: LC50 (the source's name)
AGS [6] = test: Cytotoxicity against human AGS cells assessed as reduction in cell viability at 5 uM incubated for 72 hrs by MTT assay; format: functional
LLC-PK1 [7] = test: Cytotoxicity against pig LLC-PK1 cells assessed as reduction in cell viability at 5 uM incubated for 24 hrs by MTT assay; format: cell-based, Sus scrofa; conditions: llc-pk1, 24 h
H9c2 [8] = test: Cytotoxicity against rat H9c2 cells assessed as reduction in cell viability at 5 uM incubated for 96 hrs by MTT assay; format: cell-based; conditions: h9c2, 96 h
H9c2 [9] = test: Cytotoxicity against rat H9c2 cells assessed as reduction in cell viability at 5 uM incubated for 72 hrs by MTT assay; format: cell-based; conditions: h9c2, 72 h
CCRF-CEM [10] = test: Cytotoxicity against human CCRF-CEM cells assessed as reduction in cell viability at 5 uM incubated for 72 hrs by MTT assay; format: functional
LLC-PK1 [11] = test: Cytotoxicity against pig LLC-PK1 cells assessed as reduction in cell viability at 5 uM incubated for 72 hrs by MTT assay; format: cell-based, Sus scrofa; conditions: llc-pk1, 72 h
MES-SA = test: Cytotoxicity against human MES-SA cells assessed as reduction in cell viability incubated for 72 hrs by MTT assay; format: functional; conditions: read-out: LC50 (the source's name)
H9c2 [12] = test: Cytotoxicity against rat H9c2 cells assessed as reduction in cell viability at 5 uM incubated for 24 hrs by MTT assay; format: cell-based; conditions: h9c2, 24 h
AGS [13] = test: Cytotoxicity against human AGS cells assessed as reduction in cell viability at 5 uM incubated for 24 hrs by MTT assay; format: functional
[14] = Drug uptake in nucleus of human SK-OV-3 cells incubated for 3 hrs by fluorescence microscopy; format: ADME, subcellular; conditions: sk-ov-3, 3 h
Rattus norvegicus = species on record: Rattus norvegicus; test: Drug uptake in nucleus of rat H9c2 cells measured after 24 hrs by DAPI staining based confocal microscopy analysis; format: ADME, cell-based; conditions: h9c2, 24 h
H9c2 [15] = test: Cytotoxicity against rat H9c2 cells assessed as change in cell morphology at 5uM measured after 72 hours; format: cell-based; conditions: h9c2, 72 h
SK-OV-3 [16] = test: Cytotoxicity against human SK-OV-3 cells assessed as reduction in cell viability at 5 uM incubated for 24 hrs by MTT assay; format: functional
CCRF-CEM [17] = test: Cytotoxicity against human CCRF-CEM cells assessed as reduction in cell viability at 5 uM incubated for 24 hrs by MTT assay; format: functional
AGS [18] = test: Cytotoxicity against human AGS cells assessed as reduction in cell viability incubated for 72 hrs by MTT assay; format: functional
[19] = Drug uptake in human MDA-MB-231 cells by flow cytometry in the presence of 100 uM chloroquine; format: ADME, cell-based
[20] = Drug uptake in nucleus of human MDA-MB-231 cells by confocal microscopy in the presence of 6 ug/mL chloroquine; format: ADME, subcellular
LLC-PK1 [21] = test: Cytotoxicity against pig LLC-PK1 cells assessed as reduction in cell viability at 50 uM by MTT assay; format: cell-based, Sus scrofa; conditions: llc-pk1, 50 µM
[22] = Drug uptake in human MDA-MB-231 cells by flow cytometry in the presence of 30 uM chlorpromazine; format: ADME, cell-based
[23] = Protein binding in 20% FBS by HPLC analysis; format: ADME, cell-free, Bos taurus; conditions: cattle, serum
[24] = Drug uptake in nucleus of human MDA-MB-231 cells by confocal microscopy in the presence of 20 ug/mL chlorpromazine; format: ADME, subcellular
[25] = Drug uptake in nucleus of human MDA-MB-231 cells by confocal microscopy in the presence of 50 ug/mL genistein; format: ADME, subcellular
AGS [26] = test: Cytotoxicity against human AGS cells assessed as reduction in cell viability at 5 to 10 uM incubated for 24 hrs by MTT assay; format: functional, cell-based; conditions: dose 5-10 µM
[27] = Drug uptake in human MDA-MB-231cells by flow cytometry in the presence of 50 ug/mL nystatin; format: ADME
SK-OV-3 [28] = test: Cytotoxicity against human SK-OV-3 cells assessed as reduction in cell viability at 10 uM incubated for 72 hrs by MTT assay; format: functional
[29] = Drug uptake in human MDA-MB-231 cells by flow cytometry in the presence of 2.5 mM methyl-beta-cyclodextrin; format: ADME, cell-based
H9c2 [30] = test: Cytotoxicity against rat H9c2 cells assessed as reduction in cell viability at 25 uM incubated for 72 hrs by MTT assay; format: cell-based; conditions: h9c2, 72 h
SK-OV-3 [31] = test: Cytotoxicity against human SK-OV-3 cells assessed as reduction in cell viability at 25 uM incubated for 72 hrs by MTT assay; format: functional
H9c2 [32] = test: Cytotoxicity against rat H9c2 cells assessed as reduction in cell viability at 25 uM incubated for 24 hrs by MTT assay; format: cell-based; conditions: h9c2, 24 h
[33] = Drug uptake in human SK-OV-3 cells assessed as doxorubicin fluorescence incubated for 3 hrs by fluorescence microscopy; format: ADME, cell-based; conditions: sk-ov-3, 3 h
CCRF-CEM [34] = test: Cytotoxicity against human CCRF-CEM cells assessed as reduction in cell viability at 25 uM incubated for 24 hrs by MTT assay; format: functional
LLC-PK1 [35] = test: Cytotoxicity against pig LLC-PK1 cells assessed as reduction in cell viability at 10 uM incubated for 24 to 72 hrs by MTT assay; format: cell-based, Sus scrofa; conditions: llc-pk1, 10 µM, time 24-72 hrs
H9c2 [36] = test: Cytotoxicity against rat H9c2 cells assessed as reduction in cell viability at 5 to 10 uM incubated upto 96 hrs by MTT assay; format: cell-based; conditions: h9c2, 96 h, dose 5-10 µM
[37] = Drug uptake in rat H9c2 cells assessed as doxorubicin fluorescence measured at 24 to 72 hrs by fluorescence microscopy analysis; format: ADME, cell-based; conditions: time 24-72 hrs
[38] = Drug uptake in human SK-OV-3 cells at 5 uM incubated for 24 hrs by fluorescence microscopy; format: ADME, cell-based; conditions: sk-ov-3, 24 h
CCRF-CEM [39] = test: Cytotoxicity against human CCRF-CEM cells assessed as reduction in cell viability at 5 to 10 uM incubated for 24 hrs by MTT assay; format: functional, cell-based; conditions: dose 5-10 µM
H9c2 [40] = test: Cytotoxicity against rat H9c2 cells assessed as reduction in cell viability at 25 uM incubated for 96 hrs by MTT assay; format: cell-based; conditions: h9c2, 96 h
[41] = Drug uptake in nucleus of human MDA-MB-231 cells by confocal microscopy in the presence of 50 ug/mL nystatin; format: ADME, subcellular
CCRF-CEM [42] = test: Cytotoxicity against human CCRF-CEM cells assessed as reduction in cell viability at 5 to 25 uM after 72 hrs incubation by MTT assay; format: functional; conditions: dose 5-25 µM
[43] = Stability of compound in 10% FBS assessed as parent compound remaining after 24 hrs by HPLC analysis; format: ADME; conditions: cattle, 10% FBS (fetal bovine serum), read-out: Stability
SK-OV-3 [44] = test: Cytotoxicity against human SK-OV-3 cells assessed as reduction in cell viability at 5 to 25 uM incubated for 24 hrs by MTT assay; format: functional; conditions: dose 5-25 µM
LLC-PK1 [45] = test: Cytotoxicity against pig LLC-PK1 cells assessed as reduction in cell viability at 5 to 50 uM incubated for 72 hrs by MTT assay; format: cell-based, Sus scrofa; conditions: llc-pk1, 72 h, dose 5-50 µM
AGS [46] = test: Cytotoxicity against human AGS cells assessed as reduction in cell viability at 50 uM incubated for 72 hrs by MTT assay; format: functional
CCRF-CEM [47] = test: Cytotoxicity against human CCRF-CEM cells assessed as reduction in cell viability at 5 to 10 uM after 72 hrs incubation by MTT assay; format: functional; conditions: dose 5-10 µM
LLC-PK1 [48] = test: Cytotoxicity against pig LLC-PK1 cells assessed as reduction in cell viability at 50 uM after 24 hrs of incubation by MTT assay; format: cell-based, Sus scrofa; conditions: llc-pk1, 24 h
AGS [49] = test: Cytotoxicity against human AGS cells assessed as reduction in cell viability at 5 to 10 uM incubated for 24 to 72 hrs by MTT assay; format: functional, cell-based; conditions: dose 5-10 µM, time 24-72 hrs
AGS [50] = test: Cytotoxicity against human AGS cells assessed as reduction in cell viability at 25 uM incubated for 72 hrs by MTT assay; format: functional

## COc1cccc2c1C(=O)c1c(O)c3c(c(O)c1C2=O)C[C@@](O)(C(=O)CO)C[C@@H]3O[C@H]1C[C@H](NC(=N)CCCSSC[C@H](NC(C)=O)C(=O)N[C@@H](Cc2c[nH]c3ccccc23)C(=O)N[C@@H](Cc2c[nH]c3ccccc23)C(=O)N[C@@H](Cc2c[nH]c3ccccc23)C(=O)N[C@@H](Cc2c[nH]c3ccccc23)C(=O)N[C@@H](Cc2c[nH]c3ccccc23)C(=O)N[C@@H](Cc2c[nH]c3ccccc23)C(=O)N[C@@H](Cc2c[nH]c3ccccc23)C(=O)NCCCC[C@@H]2NC(=O)[C@H](CCCNC(=N)N)NC(=O)[C@H](CCCNC(=N)N)NC(=O)[C@H](CCCNC(=N)N)NC(=O)[C@H](CCCNC(=N)N)NC(=O)[C@H](CCCNC(=N)N)NC2=O)[C@H](O)[C@H](C)O1
H9c2 [1]
  Activity: Non-Toxic
CCRF-CEM [2]
  Activity: 79%

## COc1cccc2c1C(=O)c1c(O)c3c(c(O)c1C2=O)C[C@@](O)(C(=O)CO)C[C@@H]3O[C@H]1C[C@H](N)[C@H](O)[C@H](C)O1 [DOXORUBICIN]
SK-OV-3 [3]
  Activity: 33%
MDA-MB-231 [4]
  CC50: 2.3 µM
MDA-MB-231 [5]
  CC50: 0.45 µM
AGS [6]
  Activity: 87%
LLC-PK1 [7]
  Activity: 64%
H9c2 [8]
  Activity: 44%
H9c2 [9]
  Activity: 44%
CCRF-CEM [10]
  Activity: 85%
LLC-PK1 [11]
  Activity: 77%
MES-SA
  CC50: 4.3 µM
H9c2 [12]
  Activity: 20%
AGS [13]
  Activity: 46%
[14]
  Drug uptake: Active
Rattus norvegicus
  Drug uptake: Active
H9c2 [15]
  Activity: Toxic
SK-OV-3 [16]
  Activity: 27%
CCRF-CEM [17]
  Activity: 52%

## COc1cccc2c1C(=O)c1c(O)c3c(c(O)c1C2=O)C[C@@](O)(C(=O)COC(=O)CCCC(=O)NCCC(=O)N[C@@H](Cc1c[nH]c2ccccc12)C(=O)N[C@@H](Cc1c[nH]c2ccccc12)C(=O)N[C@@H](Cc1c[nH]c2ccccc12)C(=O)N[C@@H](Cc1c[nH]c2ccccc12)C(=O)N[C@@H](Cc1c[nH]c2ccccc12)C(=O)N[C@@H](Cc1c[nH]c2ccccc12)C(=O)N[C@@H](Cc1c[nH]c2ccccc12)C(=O)NCCCC[C@@H]1NC(=O)[C@H](CCCNC(=N)N)NC(=O)[C@H](CCCNC(=N)N)NC(=O)[C@H](CCCNC(=N)N)NC(=O)[C@H](CCCNC(=N)N)NC(=O)[C@H](CCCNC(=N)N)NC1=O)C[C@@H]3O[C@H]1C[C@H](N)[C@H](O)[C@H](C)O1
AGS [18]
  Activity: 73%
[19]
  Drug uptake: Active
SK-OV-3 [3]
  Activity: 29%
MDA-MB-231 [4]
  CC50: 36 µM
MDA-MB-231 [5]
  CC50: 0.56 µM
[20]
  Drug uptake: Active
LLC-PK1 [21]
  Activity: 33%
[22]
  Drug uptake: 78%
[23]
  Activity: Active
[24]
  Drug uptake: Active
[25]
  Drug uptake: Active
AGS [26]
  Activity: inactive
[27]
  Drug uptake: Active
SK-OV-3 [28]
  Activity: 39%
[29]
  Drug uptake: 72%
H9c2 [30]
  Activity: 37%
SK-OV-3 [31]
  Activity: 48%
H9c2 [32]
  Activity: 68%
[33]
  Drug uptake: Not Active
CCRF-CEM [34]
  Activity: 64%
LLC-PK1 [35]
  Activity: Non-Toxic
H9c2 [36]
  Activity: Non-Toxic
[37]
  Drug uptake: Not Active
MES-SA
  CC50: 41 µM
[38]
  Drug uptake: Active
CCRF-CEM [39]
  Activity: Active
H9c2 [40]
  Activity: 39%
[41]
  Drug uptake: Active
CCRF-CEM [42]
  Activity: 84%
[43]
  remaining at 24 h: 25%

## N=C(N)NCCC[C@@H]1NC(=O)[C@H](CCCCNC(=O)[C@H](Cc2c[nH]c3ccccc23)NC(=O)[C@H](Cc2c[nH]c3ccccc23)NC(=O)[C@H](Cc2c[nH]c3ccccc23)NC(=O)[C@H](Cc2c[nH]c3ccccc23)NC(=O)[C@H](Cc2c[nH]c3ccccc23)NC(=O)[C@H](Cc2c[nH]c3ccccc23)NC(=O)[C@H](Cc2c[nH]c3ccccc23)NC(=O)CCN)NC(=O)[C@H](CCCNC(=N)N)NC(=O)[C@H](CCCNC(=N)N)NC(=O)[C@H](CCCNC(=N)N)NC(=O)[C@H](CCCNC(=N)N)NC1=O
SK-OV-3 [44]
  Activity: 21%
LLC-PK1 [45]
  Activity: Non-Toxic
AGS [46]
  Activity: 87%
SK-OV-3 [31]
  Activity: 19%
CCRF-CEM [34]
  Activity: 68%
CCRF-CEM [47]
  Activity: 10%
LLC-PK1 [48]
  Activity: 71%
AGS [49]
  Activity: inactive
AGS [50]
  Activity: 24%
